Data taken from patent US20230190694A1, “COMPOSITIONS FOR AND METHODS OF PRECISION CANCER TREATMENT” (priority 2021, published 2023).

Tests used:
Solubility in water = type: physicochemical
[1] = tested on: mutated and amplified genes (ctDNA) in blood; assay: Molecular response by repeated Guardant 360 tests (ctDNA in blood); type: in vivo, human; conditions: individual patients; genes named in the cited cell or block
Protocol: Molecular response was determined by repeated Guardant 360 tests. […] Herein, blood samples were collected from patients and provided to Guardant for panel testing wherein a “panel” was defined as five or more ctDNA genes or gene mutation variants tested on the same day on the same member by the same rendering provider (i.e., Guardant).

[2] = tested on: Uncommon Cancers (Neoplastic Disorders); assay: Patients with uncommon cancers treated with AS2-1 in combination with other drugs: response and survival; type: in vivo, human; conditions: GIST patient, before the combination of AS and sunitinib
Protocol: Patients diagnosed with 34 types of terminal cancer were treated with Antineoplaston AS2-1 (AS) therapy to reduce and/or abolish tumors and other signs of cancer and reduce and/or abolish expression of cancer-causing genes. In brief, patients admitted for treatment herein were diagnosed with terminal, Stage IV, cancers of varying types with multiple metastases and had failed standard-of-care regimens, except for a small number of patients who were treatment naive, but were not candidates for standard treatment because of very advanced disease and less than 6 months life expectancy. The estimated survival for these patients was from less than one to less than 6 months. The patients had radiological evidence of advanced metastatic cancer performed within 4 weeks from treatment start and genomic analysis, usually ordered at admission, including Guardant 360 blood test and/or Foundation One and/or Tempus blood or tissue test and/or SEMA4 tissue test. […]
At baseline, history taking, physical examination, necessary laboratory, genomic and radiological evaluations were performed. Two largest perpendicular diameters of the radiologically significant lesions were measured including MRI contrast-enhanced lesions in the brain and spinal cord. […] Mixed response was determined when there was a CR or PR of some lesions and PD of the other lesions. […]

| SMILES | Genes affected by AS / molecular response: status of mutated or amplified genes in follow-up blood genomic analysis [1] | further results |
| --- | --- | --- |
| NC(=O)C(CCC(=O)[O-])NC(=O)Cc1ccccc1.[Na+] (stereo not shown) [Iso-PG, phenylacetylisoglutaminate sodium] | – | solubility in water (Solubility in water): soluble in water |
| CCc1cc2c(cc1N1CCC(N3CCOCC3)CC1)C(C)(C)c1[nH]c3cc(C#N)ccc3c1C2=O [alectinib] | Elimination of the ALK fusion | – |
| Cc1ccc(NC(=O)c2ccc(CN3CCN(C)CC3)cc2)cc1Nc1nccc(-c2cccnc2)n1 [imatinib] | – | response to prior targeted therapy [2]: failed to respond |
| C=CC(=O)Nc1cc(Nc2nccc(-c3cn(C)c4ccccc34)n2)c(OC)cc1N(C)CCN(C)C [osimertinib] | elimination of the two EGFR mutations | – |
